Results: ChEMBL document CHEMBL3259563, “The discovery of potent and selective non-steroidal glucocorticoid receptor modulators, suitable for inhalation” (Bioorg Med Chem Lett, 2014)

Tests used:
[1] = Clearance in iv dosed rat; format: ADME, organism-based; conditions: in vivo
Hepatocyte = assay: Intrinsic clearance in rat hepatocytes; format: ADME, cell-based
[2] = molecular target: Voltage-gated inwardly rectifying potassium channel KCNH2 (Homo sapiens, UniProt Q12809); assay: Inhibition of human ERG channel
[3] = Intrinsic clearance in rat microsomes; format: ADME, Microsome
[4] = molecular target: T1, Mineralocorticoid receptor (Homo sapiens, UniProt P08235); assay: Binding affinity to mineralocorticoid receptor (unknown origin)
T1 sequence (P08235 whole entry): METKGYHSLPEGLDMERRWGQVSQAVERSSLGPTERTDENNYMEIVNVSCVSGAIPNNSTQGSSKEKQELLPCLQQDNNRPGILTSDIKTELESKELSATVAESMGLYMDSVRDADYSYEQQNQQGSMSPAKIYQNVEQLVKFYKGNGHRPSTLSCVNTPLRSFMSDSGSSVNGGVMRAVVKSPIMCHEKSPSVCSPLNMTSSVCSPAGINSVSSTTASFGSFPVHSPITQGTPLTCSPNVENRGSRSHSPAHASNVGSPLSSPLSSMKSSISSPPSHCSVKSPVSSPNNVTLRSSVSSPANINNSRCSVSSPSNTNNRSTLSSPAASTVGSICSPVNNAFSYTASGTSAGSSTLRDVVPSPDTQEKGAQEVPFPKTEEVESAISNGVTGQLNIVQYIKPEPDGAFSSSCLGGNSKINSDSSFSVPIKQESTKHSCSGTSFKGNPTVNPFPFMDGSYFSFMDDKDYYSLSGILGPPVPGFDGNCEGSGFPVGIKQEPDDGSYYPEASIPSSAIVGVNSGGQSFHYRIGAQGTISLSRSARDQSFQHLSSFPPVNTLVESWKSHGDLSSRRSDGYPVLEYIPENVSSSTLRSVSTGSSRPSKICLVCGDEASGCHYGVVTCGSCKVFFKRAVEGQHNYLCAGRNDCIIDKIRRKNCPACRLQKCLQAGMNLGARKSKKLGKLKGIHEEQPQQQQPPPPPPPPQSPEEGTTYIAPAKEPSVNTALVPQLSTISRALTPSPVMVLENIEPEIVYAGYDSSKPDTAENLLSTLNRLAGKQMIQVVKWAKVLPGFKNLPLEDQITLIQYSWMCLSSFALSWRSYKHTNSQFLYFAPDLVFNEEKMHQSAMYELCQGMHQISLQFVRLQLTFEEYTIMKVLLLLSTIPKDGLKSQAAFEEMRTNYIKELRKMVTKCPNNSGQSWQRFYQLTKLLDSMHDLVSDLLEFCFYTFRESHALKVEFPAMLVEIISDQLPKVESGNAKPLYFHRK

Glucocorticoid receptor [5] = molecular target: T2, Glucocorticoid receptor (Homo sapiens, UniProt P04150)
T2 sequence (P04150 whole entry): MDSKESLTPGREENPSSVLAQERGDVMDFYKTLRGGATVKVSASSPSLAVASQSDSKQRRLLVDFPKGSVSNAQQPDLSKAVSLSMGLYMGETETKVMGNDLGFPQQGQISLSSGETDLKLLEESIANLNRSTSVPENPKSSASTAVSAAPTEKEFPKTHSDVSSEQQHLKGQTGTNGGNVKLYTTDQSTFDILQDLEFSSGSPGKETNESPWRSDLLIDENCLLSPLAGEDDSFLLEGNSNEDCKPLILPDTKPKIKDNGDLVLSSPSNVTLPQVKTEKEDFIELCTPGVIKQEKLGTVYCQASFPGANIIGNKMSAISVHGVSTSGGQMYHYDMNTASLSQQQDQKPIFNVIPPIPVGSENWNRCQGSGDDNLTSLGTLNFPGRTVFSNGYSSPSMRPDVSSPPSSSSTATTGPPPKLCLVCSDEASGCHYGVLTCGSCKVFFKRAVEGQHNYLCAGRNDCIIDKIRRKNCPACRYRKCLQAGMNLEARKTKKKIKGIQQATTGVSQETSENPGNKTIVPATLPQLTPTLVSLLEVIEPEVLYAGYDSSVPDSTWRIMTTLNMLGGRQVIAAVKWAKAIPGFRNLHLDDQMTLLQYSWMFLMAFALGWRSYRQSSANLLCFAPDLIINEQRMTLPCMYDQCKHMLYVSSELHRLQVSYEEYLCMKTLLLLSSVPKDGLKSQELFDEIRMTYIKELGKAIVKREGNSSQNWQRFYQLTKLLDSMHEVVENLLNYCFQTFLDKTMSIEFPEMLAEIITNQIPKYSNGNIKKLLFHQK
Description: Agonist activity at glucocorticoid receptor in human PBMC assessed as inhibition of LPS-stimulated TNF-alpha release

Cytochrome P450 2D6 = Cytochrome P450 2D6 (Homo sapiens, UniProt P10635); assay: Inhibition of CYP2D6 (unknown origin); format: ADME
[6] = Intrinsic clearance in human microsomes; format: ADME, Microsome
Estrogen receptor beta = Estrogen receptor beta (Homo sapiens, UniProt Q92731); assay: Binding affinity to ER-beta (unknown origin)
[7] = Half life in iv dosed rat; format: ADME, organism-based; conditions: in vivo
Cytochrome P450 3A4 = Cytochrome P450 3A4 (Homo sapiens, UniProt P08684); assay: Inhibition of CYP3A4 (unknown origin); format: ADME
Plasma = assay: Fraction unbound in human plasma; format: ADME, cell-free
Glucocorticoid receptor [8] = molecular target: T3, Glucocorticoid receptor (Rattus norvegicus, UniProt P06536); assay: Agonist activity at glucocorticoid receptor in rat PBMC assessed as inhibition of LPS-stimulated TNF-alpha release
T3 sequence (P06536 whole entry): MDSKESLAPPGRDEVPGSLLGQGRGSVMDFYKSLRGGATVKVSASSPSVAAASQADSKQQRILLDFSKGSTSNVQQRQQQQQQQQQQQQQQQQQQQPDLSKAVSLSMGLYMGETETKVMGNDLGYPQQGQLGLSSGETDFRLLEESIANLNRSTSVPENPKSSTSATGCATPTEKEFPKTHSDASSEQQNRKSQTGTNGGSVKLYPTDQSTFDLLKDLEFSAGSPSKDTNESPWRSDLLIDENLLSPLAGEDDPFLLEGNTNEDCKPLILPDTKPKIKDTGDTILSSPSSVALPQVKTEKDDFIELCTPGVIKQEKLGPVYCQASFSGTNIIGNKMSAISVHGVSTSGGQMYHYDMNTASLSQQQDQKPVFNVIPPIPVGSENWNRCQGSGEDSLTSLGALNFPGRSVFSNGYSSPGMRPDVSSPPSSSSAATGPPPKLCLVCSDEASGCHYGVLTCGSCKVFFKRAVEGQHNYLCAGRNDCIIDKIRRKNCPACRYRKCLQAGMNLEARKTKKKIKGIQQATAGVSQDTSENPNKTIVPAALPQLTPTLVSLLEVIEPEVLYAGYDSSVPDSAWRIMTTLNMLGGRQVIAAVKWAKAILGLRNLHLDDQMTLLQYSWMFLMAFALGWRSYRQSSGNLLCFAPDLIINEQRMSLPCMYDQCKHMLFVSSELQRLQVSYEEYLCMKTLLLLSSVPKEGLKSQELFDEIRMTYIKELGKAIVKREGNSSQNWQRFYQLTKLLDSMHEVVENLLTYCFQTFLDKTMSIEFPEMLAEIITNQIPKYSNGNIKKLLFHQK

Glucocorticoid receptor [9] = molecular target: T2, Glucocorticoid receptor; remark: listed apart in the source
Description: Agonist activity at glucocorticoid receptor in human Chago K1 cells assessed as gene transrepression by Lac-Z reporter gene assay

Chain of Cytochrome P450 2D6 (P10635 whole entry): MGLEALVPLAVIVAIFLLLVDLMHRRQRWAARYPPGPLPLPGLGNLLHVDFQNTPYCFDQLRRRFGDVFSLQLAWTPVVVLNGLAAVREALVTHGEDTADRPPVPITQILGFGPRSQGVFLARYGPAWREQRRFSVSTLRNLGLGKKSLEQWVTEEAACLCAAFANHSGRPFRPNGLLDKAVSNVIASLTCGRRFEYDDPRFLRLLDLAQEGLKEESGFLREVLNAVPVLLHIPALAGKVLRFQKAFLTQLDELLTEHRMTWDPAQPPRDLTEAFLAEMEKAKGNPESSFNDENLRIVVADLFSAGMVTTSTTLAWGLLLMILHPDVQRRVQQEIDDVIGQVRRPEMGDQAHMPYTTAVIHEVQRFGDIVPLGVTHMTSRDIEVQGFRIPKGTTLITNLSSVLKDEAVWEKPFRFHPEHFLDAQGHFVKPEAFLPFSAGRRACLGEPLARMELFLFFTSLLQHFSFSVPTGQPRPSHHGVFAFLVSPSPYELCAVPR
Chain of Cytochrome P450 3A4 (P08684 whole entry): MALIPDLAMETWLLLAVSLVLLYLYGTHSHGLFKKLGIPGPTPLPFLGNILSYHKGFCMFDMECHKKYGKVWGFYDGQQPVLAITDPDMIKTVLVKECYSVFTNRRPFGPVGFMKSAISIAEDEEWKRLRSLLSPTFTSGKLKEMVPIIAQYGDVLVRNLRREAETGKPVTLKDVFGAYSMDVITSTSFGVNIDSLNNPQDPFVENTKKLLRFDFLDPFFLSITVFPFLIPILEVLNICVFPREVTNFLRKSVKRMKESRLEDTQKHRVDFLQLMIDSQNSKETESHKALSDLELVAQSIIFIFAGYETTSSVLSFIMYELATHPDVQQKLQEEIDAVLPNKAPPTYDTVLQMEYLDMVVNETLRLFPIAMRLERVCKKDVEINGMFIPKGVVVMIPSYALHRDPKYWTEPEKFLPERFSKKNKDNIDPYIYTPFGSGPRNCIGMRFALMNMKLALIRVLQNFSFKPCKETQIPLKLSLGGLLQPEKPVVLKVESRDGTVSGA
Chain of Estrogen receptor beta (Q92731 whole entry): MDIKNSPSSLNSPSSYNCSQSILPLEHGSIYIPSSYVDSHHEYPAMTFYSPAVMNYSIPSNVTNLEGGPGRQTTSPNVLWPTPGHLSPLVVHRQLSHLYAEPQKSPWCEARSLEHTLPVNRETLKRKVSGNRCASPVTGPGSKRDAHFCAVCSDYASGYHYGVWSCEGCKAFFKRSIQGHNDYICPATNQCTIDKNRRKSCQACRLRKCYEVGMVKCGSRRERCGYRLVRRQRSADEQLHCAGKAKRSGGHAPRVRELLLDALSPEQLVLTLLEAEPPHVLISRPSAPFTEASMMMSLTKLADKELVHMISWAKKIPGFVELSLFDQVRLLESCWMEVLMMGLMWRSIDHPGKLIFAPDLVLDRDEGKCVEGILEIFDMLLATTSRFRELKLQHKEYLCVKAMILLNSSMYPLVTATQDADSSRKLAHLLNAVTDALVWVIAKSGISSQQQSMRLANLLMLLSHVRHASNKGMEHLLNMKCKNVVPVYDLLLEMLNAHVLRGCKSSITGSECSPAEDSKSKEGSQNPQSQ
Chain of Voltage-gated inwardly rectifying potassium channel KCNH2 (Q12809 whole entry): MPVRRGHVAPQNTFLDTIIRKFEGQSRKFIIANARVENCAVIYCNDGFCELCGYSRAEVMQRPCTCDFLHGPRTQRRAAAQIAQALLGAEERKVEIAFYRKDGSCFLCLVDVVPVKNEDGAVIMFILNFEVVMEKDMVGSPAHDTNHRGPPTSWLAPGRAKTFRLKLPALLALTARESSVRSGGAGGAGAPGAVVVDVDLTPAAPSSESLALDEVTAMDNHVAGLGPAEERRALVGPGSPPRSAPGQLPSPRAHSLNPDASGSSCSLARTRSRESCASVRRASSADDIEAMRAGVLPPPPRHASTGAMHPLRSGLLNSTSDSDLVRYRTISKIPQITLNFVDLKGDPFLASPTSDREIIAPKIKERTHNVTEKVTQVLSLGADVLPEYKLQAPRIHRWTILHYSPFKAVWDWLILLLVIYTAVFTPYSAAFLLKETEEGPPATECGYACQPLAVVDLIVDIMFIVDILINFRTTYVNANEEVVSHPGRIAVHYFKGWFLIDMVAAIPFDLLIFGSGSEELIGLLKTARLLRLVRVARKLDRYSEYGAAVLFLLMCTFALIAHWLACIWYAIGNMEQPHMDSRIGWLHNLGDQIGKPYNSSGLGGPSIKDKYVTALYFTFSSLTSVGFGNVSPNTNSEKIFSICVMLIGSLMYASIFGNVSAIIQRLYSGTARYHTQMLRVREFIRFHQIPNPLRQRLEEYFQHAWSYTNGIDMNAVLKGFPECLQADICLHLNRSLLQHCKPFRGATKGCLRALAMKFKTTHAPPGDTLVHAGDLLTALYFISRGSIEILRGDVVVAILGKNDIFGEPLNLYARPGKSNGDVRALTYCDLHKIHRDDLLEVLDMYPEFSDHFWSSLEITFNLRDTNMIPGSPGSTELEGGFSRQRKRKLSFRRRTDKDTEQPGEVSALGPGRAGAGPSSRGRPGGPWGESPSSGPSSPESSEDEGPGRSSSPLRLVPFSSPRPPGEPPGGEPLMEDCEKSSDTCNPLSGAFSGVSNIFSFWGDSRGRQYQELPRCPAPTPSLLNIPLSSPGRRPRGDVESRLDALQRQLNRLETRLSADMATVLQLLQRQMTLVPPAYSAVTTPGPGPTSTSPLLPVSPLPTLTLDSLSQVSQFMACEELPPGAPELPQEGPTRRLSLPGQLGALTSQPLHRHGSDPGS

Structure (SMILES): Cc1nn(C2CCCC2)c(C)c1S(=O)(=O)N[C@@H](C)CNc1cccc2c1cnn2-c1ccc(F)nc1
- clearance [1]: 78 mL/min/kg
- CLH (Hepatocyte): 33 µL/min
- IC50 [2]: 8700 nM
- microsomal CLint [3]: > 200 µL/min/mg
- IC50 [4]: > 5000 nM
- IC50 (Glucocorticoid receptor [5]): 14 nM
- IC50 (Cytochrome P450 2D6): > 20000 nM
- microsomal CLint [6]: > 200 µL/min/mg
- IC50 (Estrogen receptor beta): > 5000 nM
- half-life [7]: 6.4 h
- IC50 (Cytochrome P450 3A4): 22000 nM
- Fu (Plasma): 0.005%
- IC50 (Glucocorticoid receptor [8]): 4.5 nM
- IC50 (Glucocorticoid receptor [9]): 7.2 nM
